These results are taken from patent publication US9790253B2, “OSW-1 analogs and conjugates, and uses thereof” (priority 2011, dated 2017).

Read-outs that look alike come from different tables or passages of the source.

In general, Kd refers to the concentration at which binding is half-saturated.

For one data set, the system named is CHO-K1 cells. The experiment in a line: Sphingomyelin biosynthesis, [3H]-serine pulse-labeling, CHO-K1. It counts as cell-based. The protocol:
(§1) Sphingomyelin is biosynthesized from ceramide at the Golgi apparatus. Ceramide is primarily transported from the ER to the Golgi by ceramide transport protein (CERT), and the transport activity of CERT is both OSBP1- and VAP-A dependent. […] To determine whether the ORPphilins affect sphingomyelin synthesis, pulse-labeling with [^3H]-serine was performed in CHO-K1 and HCT-116 cells and the amount of tritium incorporated into sphingomyelin and other lipids then measured. Cells were treated with vehicle or compound for 6 h, and in the last 2 h the cells were pulsed with 10 μCi [^3H]-serine. Lipids were extracted and isolated by TLC, and label incorporation into sphingomyelin was measured by scintillation counting.

Data set [1] deals with OSBP (oxysterol-binding protein) (Homo sapiens, UniProt P22059). The note with it: cited from earlier work.
A further data set has as its system A549 cells. The experiment in a line: cells. It is filed as cell-based, human. The note with it: A549 cells, 48 h; read-out: GI50 (nM) 48 h. The source says:
Methods are essentially as described above in the General Methods section in connection with assays using HCT-116 cells.

The next data set relates to U87-MG. The conditions noted are these: cited from earlier work.
A further data set deals with HCT-116 cells. Nature of the data set: [3H]-serine pulse-labeling, HCT-116. It is filed as cell-based, human. The note with it: range of concentrations. The protocol:
as §1

The test system of data set [2] is CERT protein levels in HCT-116 cells or A549 cells. The experiment in a line: CERT protein levels. The conditions noted are these: high dose (GI90). It counts as cell-based, human. The procedure: Suppression of CERT expression is reported to cause a significant reduction in basal SM biosynthesis. Therefore, 1 and 2 were tested for their ability to induce a reduction in CERT levels, akin to the effects of 1 and 2 on OSBP1 levels.

In a further data set the test system is HCT-116 p21^−/− cells. The experiment in a line: cells. The note with it: HCT-116 p21-/-. The protocol: (§2) Cell viability assay. Cells were plated into 96-well plates in 75 μL of media. After 24 h, a time-zero plate was produced by adding 25 μL of media and 20 μL of CellTiter-Blue® (Promega) to the wells, followed by incubation at 37° C. for 90 min. Fluorescence (544 nm excitation; 590 nm emission) was detected using a SPECTRAmax® Gemini XS to establish cell viability at time of dosing. Then, compounds were serially diluted in media and delivered to the cells as 4× solutions in 25 μL of media. At either 48 h or 72 h, CellTiter-Blue® was added and the fluorescence was recorded as described above.
(§3) Tasdemir et al. (2002) J Nat Prod 65:210-4. GI50-values of the compounds were determined in HCT-116 p21^+/+ (wt) and p21^−/− cells after 48 h using a resazurin redox dye to measure cell viability.
(§4) Methods are described above in the General Methods section.

The test system of data set [3] is CLL (chronic lymphocytic leukemia) cells taken from patients. The conditions noted are these: read-out: GI50 fludarabine-refractory CLL cells; cited from earlier work.
For another data set, the system named is normal astrocytes. The note with it: cited from earlier work.
Data set [4] has as its system OSBP1 localization in A549 cells. The experiment in a line: OSBP1 localization by immunofluorescence microscopy, A549. It is filed as cell-based, human. The procedure:
Immunofluorescence microscopy. HCT-116 or A549 (adenocarcinomic human alveolar basal epithelial) cells were plated on coverslips in 6-well plates. After 72 h, the culture media was removed and replaced with media containing either compound or vehicle control. At the indicated time-points, the cells were fixed for 10 min using 3.7% formaldehyde in PBS. The coverslips were washed with PBS and permeabilized for 5 min with 0.5% Triton X-100 in PBS. Following PBS washing, the coverslips were blocked for 30 min using Image-iT™ FX (Invitrogen), washed with PBS, and then blocked for 30 min at room temperature (RT) with 1% BSA in PBS (BSA/PBS). The coverslips were then incubated overnight at 4° C. with a primary antibody solution in BSA/PBS. The coverslips were washed with BSA/PBS and incubated for 60 min at RT with Alexa Fluor®-conjugated secondary antibodies (Invitrogen) in BSA/PBS, with the final 30 min including incubation with Hoescht 33258. The coverslips were then washed sequentially with BSA/PBS, PBS, and water and finally mounted on microscope slides using Aqua Poly/Mount (Polysciences Inc.). Imaging data was acquired using Zeiss LSM 510 META scanning confocal microscope.
Perturbations of OSBP1 localization by 1, 2, and 4b in A549 cells were also observed.

The next data set has as its system NCI-60. The note with it: read-out: average GI50 against the NCI-60; cited from earlier work.
The test system of data set [5] is glioblastoma and leukemia cells. The conditions noted are these: cited from earlier work.
The subject of a further data set is P388 tumor cells. The note with it: single i.p. treatment of 0.01 mg/kg; cited from earlier work.
The subject of data set [6] is HCT-116 p21^+/+ (wt) cells. Nature of the data set: Growth inhibition (cell viability assay) of HCT-116 p21+/+ cells. The conditions noted are these: for GI50: HCT-116 p21+/+. The protocol: as §2, §3, §4
Another data set has as its system HL-60. The note with it: cited from earlier work.
The next data set deals with normal lymphocytes. The note with it: cited from earlier work.
For another data set, the system named is tumor xenograft. The conditions noted are these: i.p. 9.3 mg/kg (Q2Dx4); cited from earlier work.

OSBP (oxysterol-binding protein), sequence (P22059 whole entry, species assumed): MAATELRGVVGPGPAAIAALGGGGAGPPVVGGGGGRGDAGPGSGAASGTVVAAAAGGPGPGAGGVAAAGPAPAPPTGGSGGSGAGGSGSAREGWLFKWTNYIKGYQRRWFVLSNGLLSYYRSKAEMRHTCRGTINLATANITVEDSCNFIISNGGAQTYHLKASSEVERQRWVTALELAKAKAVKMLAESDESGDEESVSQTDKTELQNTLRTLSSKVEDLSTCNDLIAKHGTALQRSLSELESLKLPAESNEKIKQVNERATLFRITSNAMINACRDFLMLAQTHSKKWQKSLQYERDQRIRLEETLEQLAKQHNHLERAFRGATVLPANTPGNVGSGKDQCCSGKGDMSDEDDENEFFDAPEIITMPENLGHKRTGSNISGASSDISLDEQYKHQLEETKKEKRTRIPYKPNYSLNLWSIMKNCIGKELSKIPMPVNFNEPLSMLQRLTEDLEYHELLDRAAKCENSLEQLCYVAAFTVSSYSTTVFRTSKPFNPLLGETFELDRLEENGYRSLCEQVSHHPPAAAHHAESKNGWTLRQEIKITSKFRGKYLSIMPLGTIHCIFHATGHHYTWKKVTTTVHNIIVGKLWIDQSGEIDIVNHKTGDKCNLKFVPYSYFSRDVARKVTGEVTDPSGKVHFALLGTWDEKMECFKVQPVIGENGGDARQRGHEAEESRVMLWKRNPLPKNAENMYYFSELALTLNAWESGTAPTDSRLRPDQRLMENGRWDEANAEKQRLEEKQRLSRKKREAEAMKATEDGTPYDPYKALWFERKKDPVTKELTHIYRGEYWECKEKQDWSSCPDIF

For the compound `C[C@H](CCCC(C)(C)O)[C@H]1CC[C@H]2[C@@H]3CC=C4C[C@@H](O)CC[C@]4(C)[C@H]3CC[C@]12C` [Compound 25-OHC, 25-hydroxycholesterol], the “increase in the biosynthesis of sphingomyelin (SM)” value in the data set on CHO-K1 cells (5 μM, 6 h) is listed as “ca. 4 fold”. The “SM biosynthesis at GI90 dose” value with CHO-K1 cells (15 μM) was “robust stimulation”. For the same compound, the dissociation constant (Kd) in data set [1] was 37 nM.

As for `COc1ccc(C(=O)O[C@H]2[C@H](O[C@@H]3[C@@H](OC(C)=O)[C@H](O[C@H]4C[C@H]5[C@@H]6CC=C7C[C@@H](O)CC[C@]7(C)[C@H]6CC[C@]5(C)[C@@]4(O)[C@H](C)C(=O)CCC(C)C)OC[C@@H]3O)OC[C@@H](O)[C@@H]2O)cc1` [OSW-1], the GI50 in the data set with A549 cells is 0.5 ± 0.24 nM; with U87-MG, 0.047 nM; in the data set on HCT-116 p21^−/− cells (read-out: GI50 (nM) 48 h p21^−/−, 48 h) it was 0.2 ± 0.03 nM; in the data set with HCT-116 p21^−/− cells (read-out: GI50 (nM) 72 h p21^−/−, 72 h) it was 0.04 nM; in data set [3], 0.3 nM; in the data set with normal astrocytes, 7.13 nM. Moreover, the GI50 was 0.78 nM in the data set with NCI-60; 28 nM in data set [6] (read-out: GI50 (nM) 48 h p21^+/+, 48 h); 1.6 ± 0.6 nM in data set [6] (read-out: GI50 (nM) 72 h p21^+/+, 72 h); 0.04 nM with HL-60; 1.73 nM in the data set on normal lymphocytes. Further, the “selectivity, malignant brain tumor cells versus normal astrocytes” value in the data set on U87-MG is recorded as 150 fold. Besides, the ceramide labeling result in the data set on HCT-116 cells is “no effect”. Besides, the “effect on CERT protein levels” value in data set [2] is reported as “did not affect”. The OSBP1 localization result in data set [4] is on record as “induced dispersal or vesiculation of OSBP1”. The “fold more cytotoxic toward glioblastoma and leukemia cells than non-transformed astrocytes and lymphocytes” value in data set [5] is recorded as 30-150 fold. In addition, in the data set on P388 tumor cells, the increased life span is 59%. The “times more active in leukemia cells versus normal lymphocytes” value in the data set on HL-60 is 40 times.

For `C[C@@H]1[C@]2(O[C@H]3C=C4[C@@H]5CC[C@H]6Cc7nc8c(nc7C[C@]6(C)[C@H]5C[C@@H](O)[C@]4(C)[C@]31O)C[C@@H]1CC[C@H]3C4=CC[C@@H]5[C@H](C)[C@@]6(OC[C@]45C(=O)C[C@@H]3[C@@]1(C)C8)OC(C)(C)C[C@H]6O)O[C@](C)(CO)C[C@H]2O` [cephalostatin 1, Cephalostatin 1], the “effect on CERT protein levels” value in [2] is reported as “did not affect”. Also, the OSBP1 localization result in data set [4] is on record as “induced dispersal or vesiculation of OSBP1”.

Regarding schweinfurthin A, the GI50 in the data set on NCI-60 is 360 nM. Moreover, in the data set on tumor xenograft, the toxicity entry is “without overt toxicity” and the tumor volume entry is listed as “reduction in tumor volume compared to vehicle-treated controls”. Moreover, the “fold less cytotoxic than the other ORPphilins” value in data set [6] is 100-300 fold.
